From patent US20230219962A1, “PYRAZOLO[4,3-d]PYRIMIDINE DERIVATIVES AND METHODS OF USE THEREOF FOR THE TREATMENT OF CELLULAR PROLIFERATIVE DISORDERS” (Merck Sharp & Dohme LLC, priority 2020, published 2023)

Assays:
hTLR7 = target: T1, hTLR7 (Homo sapiens, UniProt Q9NYK1); experiment: Human TLR7 Reporter Assay; assay type: cell-based; conditions: HEK-Blue hTLR7 cells, 16 hours, normalized to CL097 (6 μM) and DMSO
T1 construct: host or cells: HEK-Blue hTLR7 cells (HEK293-derived, own knowledge)
T1 sequence (Q9NYK1 27-1049): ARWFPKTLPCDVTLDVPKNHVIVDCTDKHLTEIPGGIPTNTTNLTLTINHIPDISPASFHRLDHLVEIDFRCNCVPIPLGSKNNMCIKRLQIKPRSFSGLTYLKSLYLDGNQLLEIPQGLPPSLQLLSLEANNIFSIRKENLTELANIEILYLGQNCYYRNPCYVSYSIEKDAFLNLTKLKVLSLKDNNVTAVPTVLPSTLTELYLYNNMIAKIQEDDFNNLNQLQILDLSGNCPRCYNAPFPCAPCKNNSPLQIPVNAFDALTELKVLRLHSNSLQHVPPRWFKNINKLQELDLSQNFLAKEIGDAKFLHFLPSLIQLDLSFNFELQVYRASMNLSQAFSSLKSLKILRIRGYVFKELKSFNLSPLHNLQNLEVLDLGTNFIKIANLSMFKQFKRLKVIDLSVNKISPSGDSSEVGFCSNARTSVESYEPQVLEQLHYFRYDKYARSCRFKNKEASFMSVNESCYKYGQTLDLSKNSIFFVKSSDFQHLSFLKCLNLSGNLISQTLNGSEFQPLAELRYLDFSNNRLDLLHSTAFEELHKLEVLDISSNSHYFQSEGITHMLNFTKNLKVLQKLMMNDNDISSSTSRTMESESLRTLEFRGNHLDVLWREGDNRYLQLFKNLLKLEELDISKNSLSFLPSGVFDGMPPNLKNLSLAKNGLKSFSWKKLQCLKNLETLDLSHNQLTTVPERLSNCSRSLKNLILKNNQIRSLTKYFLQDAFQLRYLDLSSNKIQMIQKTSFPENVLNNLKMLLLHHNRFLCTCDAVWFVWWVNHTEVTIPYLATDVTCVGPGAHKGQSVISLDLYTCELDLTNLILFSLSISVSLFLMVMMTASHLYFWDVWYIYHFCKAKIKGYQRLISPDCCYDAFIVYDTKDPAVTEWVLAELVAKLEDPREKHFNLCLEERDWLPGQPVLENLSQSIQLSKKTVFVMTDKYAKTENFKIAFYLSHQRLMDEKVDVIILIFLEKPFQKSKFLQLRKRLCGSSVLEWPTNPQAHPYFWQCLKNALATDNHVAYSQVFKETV
Description: (§1) HEK-Blue™ hTLR7 cells (Invivogen, San Diego, Calif.) were maintained at 37° C./5% CO2/90% relative humidity in Dulbecco's Modified Eagle's Medium with 10% fetal bovine serum, 100 units/mL penicillin, 100 μg/mL streptomycin, 100 μg/mL normocin, 10 μg/mL blasticidin, and 100 μg/mL zeocin. HEK-Blue™ hTLR7 cells were maintained at 10-90% confluence and used before passage 20. For this assay, test compounds were dissolved in DMSO, and 10-point serial 3-fold dilution series in DMSO were prepared in Echo Qualified 384-well Polypropylene Microplates (Labcyte, San Jose, Calif.). Assay plates (384-well flat, clear bottom, black polystyrene TC-treated microtiter plates; Corning, Corning, N.Y.) were prepared by dispensing 150 nL of test compounds, high control (CL097; Invivogen, San Diego, Calif.), and low control (DMSO) by ECHO acoustic dispenser (Labcyte, San Jose Calif.) followed by addition of 5 μL of HEK-Blue™ Detection assay media (Invivogen, San Diego, Calif.). HEK-Blue™ hTLR7 cells in HEK-Blue™ Detection assay media (20,000 cells per well in 45 μL of media) were added to the assay plate and incubated for 16 hours at 37° C./5% CO2/90% relative humidity. For detection, assay plates were removed from the incubator, allowed to cool to ambient temperature, centrifuged at 200×g for 1 minutes, and read with an EnSpire Multimode Plate Reader (Perkin Elmer, Waltham, Mass.) for absorbance at 620 nm. Test compound effects were normalized to the window defined by the controls, CL097 (6 μM), and DMSO. Calculated % effects were fit using a 4-parameter algorithm, and EC50 was reported.

hTLR8 = target: T2, hTLR8 (Homo sapiens, UniProt Q9NR97); experiment: Human TLR8 Reporter Assay; assay type: cell-based; conditions: HEK-Blue hTLR8 cells, 16 hours, normalized to tl8-506 (1 μM) and DMSO
T2 construct: host or cells: HEK-Blue hTLR8 cells (HEK293-derived, own knowledge)
T2 sequence (Q9NR97 27-1041): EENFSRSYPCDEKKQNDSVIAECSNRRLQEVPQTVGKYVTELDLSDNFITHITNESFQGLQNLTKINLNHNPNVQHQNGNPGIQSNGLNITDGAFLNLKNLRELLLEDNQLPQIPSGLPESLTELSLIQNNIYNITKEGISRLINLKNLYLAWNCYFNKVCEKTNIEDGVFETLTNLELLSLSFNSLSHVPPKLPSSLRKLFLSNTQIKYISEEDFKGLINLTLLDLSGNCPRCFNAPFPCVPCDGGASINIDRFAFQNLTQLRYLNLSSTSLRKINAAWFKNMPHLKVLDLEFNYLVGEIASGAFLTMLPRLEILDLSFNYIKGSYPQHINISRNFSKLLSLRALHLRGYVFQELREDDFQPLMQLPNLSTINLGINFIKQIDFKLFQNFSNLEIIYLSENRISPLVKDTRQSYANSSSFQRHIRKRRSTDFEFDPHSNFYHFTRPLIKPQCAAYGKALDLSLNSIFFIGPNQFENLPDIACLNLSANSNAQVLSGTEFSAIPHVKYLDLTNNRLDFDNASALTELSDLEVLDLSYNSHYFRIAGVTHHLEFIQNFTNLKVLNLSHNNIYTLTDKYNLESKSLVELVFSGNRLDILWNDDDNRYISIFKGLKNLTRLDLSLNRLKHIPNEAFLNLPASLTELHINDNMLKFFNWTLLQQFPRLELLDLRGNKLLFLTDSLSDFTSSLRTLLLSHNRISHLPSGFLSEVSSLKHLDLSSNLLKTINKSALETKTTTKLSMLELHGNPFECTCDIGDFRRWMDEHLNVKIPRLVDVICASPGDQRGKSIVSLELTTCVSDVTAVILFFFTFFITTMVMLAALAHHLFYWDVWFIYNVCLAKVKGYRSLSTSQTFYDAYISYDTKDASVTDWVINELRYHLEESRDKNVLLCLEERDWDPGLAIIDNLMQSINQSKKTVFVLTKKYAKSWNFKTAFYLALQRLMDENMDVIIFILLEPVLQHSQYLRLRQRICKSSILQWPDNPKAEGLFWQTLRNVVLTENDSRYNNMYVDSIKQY
Description: as §1, with “hTLR8” for “hTLR7”, “(tl8-506;” for “(CL097;”, “tl8-506 (1” for “CL097 (6”

SMILES | EC50 (hTLR7) [nM] | EC50 (hTLR8) [nM]
CCNc1nc(N)nc2cn(Cc3c(OC)cccc3OC)nc12 [Compound 44] | 858 | 3930
CCCCNc1nc(N)nc2cn(Cc3c(OC)cc(C(C)N)cc3OC)nc12 (centres unmarked) [Compound 214] | 525 | 235
CCCCNc1nc(N)nc2cn(Cc3ccccc3OC(C)C)nc12 [Compound 37] | 1030 | > 9980
CCCCNc1nc(N)nc2cn(Cc3ccccc3)nc12 [Compound 2] | 1090 | 4210
CCCCNc1nc(N)nc2cn(Cc3ccc(N4CC5(CN(CCN6C(=O)C=CC6=O)C5)C4)cc3OC)nc12 [Compound 125] | 1740 | 18700
CCC[C@@H](CO)Nc1nc(N)nc2cn(Cc3c(OC)cc(C(CN)N(C)CCC)cc3OC)nc12 (some centres unmarked) [Compound 223] | 4840 | 1800
CCCCNc1nc(N)nc2cn(Cc3cncn3C3CC3)nc12 [Compound 182] | 929 | 3360
COc1cccc(OC)c1Cn1cc2nc(N)nc(NCCCO)c2n1 [Compound 47] | 8590 | > 29900
CCCCNc1nc(N)nc2cn(Cc3ncnn3C)nc12 [Compound 174] | 1450 | 8320
CCCCNc1nc(N)nc2cn(Cc3cccc(N4CCNCC4)c3OC)nc12 [Compound 132] | 708 | 1490
CCCCNc1nc(N)nc2cn(Cc3ccc(CCN)cc3OC)nc12 [Compound 139] | 717 | 942
CCC[C@@H](CO)Nc1nc(N)nc2cn(Cc3ccc(CNC)cc3OC)nc12 [Compound 155] | 2460 | 6530
CCCCNc1nc(N)nc2cn(Cc3ncoc3C)nc12 [Compound 121] | 490 | 2320
CCCCC(CCC)Nc1nc(N)nc2cn(Cc3ccccc3OC)nc12 (centres unmarked) [Compound 19] | 435 | > 29900
CCCCNc1nc(N)nc2cn(Cc3c(OC)ccc(CNC(=O)C4CCC(CN5C(=O)C=CC5=O)CC4)c3OC)nc12 (centres unmarked) [Compound 81] | > 29900 | 

The next compounds have a lower EC50 (hTLR7) than those just listed; values first:

EC50 (hTLR7) [nM] | EC50 (hTLR8) [nM] | SMILES
93 | 632 | CCCCNc1nc(N)nc2cn(Cc3ccc(N)cc3OC)nc12 [Compound 166]
160 | 1010 | CCCCNc1nc(N)nc2cn(Cc3nc(NCCCN)ccc3OC)nc12 [Compound 162]
373 | 8300 | CCCCNc1nc(N)nc2cn(Cc3nc(Br)oc3C)nc12 [Compound 160]
76.8 | 153 | C=CCN(C)Cc1ccc(Cn2cc3nc(N)nc(N[C@H](CO)CCC)c3n2)c(OC)c1 [Compound 156]
200 | 161 | CCCCNc1nc(N)nc2cn(Cc3c(OC)cc(C(C)NC)cc3OC)nc12 (centres unmarked) [Compound 209]
226 | 1890 | CCCCNc1nc(N)nc2cn(Cc3ccccc3OC(F)F)nc12 [Compound 179]
228 | 345 | CCCCNc1nc(N)nc2cn(Cc3ccc(N4CCNCC4)cc3OC)nc12 [Compound 58]
154 | 2600 | CCCCNc1nc(N)nc2cn(Cc3ccc(C4CCCN4)cc3OC)nc12 (centres unmarked) [Compound 239]
266 | > 9980 | CCCC(Nc1nc(N)nc2cn(Cc3c(OC)cccc3OC)nc12)C(F)(F)F (centres unmarked) [Compound 124]
72.7 | 328 | CCCCNc1nc(N)nc2cn(Cc3c(OC)cccc3OC)nc12 [Compound 5]
265 | 2370 | CCCCNc1nc(N)nc2cn(Cc3ccccn3)nc12 [Compound 97]
398 | > 29900 | CCCCC(CCO)Nc1nc(N)nc2cn(Cc3ccccc3OC)nc12 (centres unmarked) [Compound 17]
153 | 1260 | CCCCNc1nc(N)nc2cn(Cc3cnccc3OC)nc12 [Compound 101]
252 | 1720 | CCCCNc1nc(N)nc2cn(Cc3nocc3C)nc12 [Compound 140]
277 | 1590 | CCCCNc1nc(N)nc2cn(Cc3cn(C)nc3OC)nc12 [Compound 197]
21.8 | 178 | C=CCN(C)Cc1cc(OC)c(Cn2cc3nc(N)nc(NC(C)CCC)c3n2)c(OC)c1 (centres unmarked) [Compound 158]
360 | > 3330 | CCCCNc1nc(N)nc2cn(Cc3cc(OC)c(CN(C)CCCN4C(=O)C=CC4=O)cc3OC)nc12 [Compound 143]
363 | 78.1 | CCCNC(C)c1ccc(Cn2cc3nc(N)nc(N[C@H](CO)CCC)c3n2)c(OC)c1 (some centres unmarked) [Compound 232]
